Data as given in patent US7608604B2, “Antiparasitic agents” (Pfizer Limited, priority 2007, dated 2009).

Test system: Haemonchus contortus L3
Assay: Haemonchus contortus L3 (HcL3) in vitro test
Assay type: cell-based
Conditions: minimum effective dose; exsheathed L3 larvae in vitro, 37° C., observed up to 4 days, n=2
Description: The Haemonchus contortus L3 (HcL3) test is used to measure the biological activities of the compounds claimed. The assay involves in vitro testing against H. contortus conducted according to the following general procedure.
HcL3 larvae were collected from infected sheep and, after cleaning, stored in water at 12° C. for up to one month. Viable infective larvae were exsheathed using 10% hypochlorite in Glucose Tyrodes balanced salt solution containing antibiotics and resuspended in basal medium (20 g/l bacto-tryptone, 5 g/l yeast extract, 57 g/l glucose, 0.8 g/l di-Potassium hydrogen orthophosphate, 0.8 g/l potassium dihydrogen orthophosphate and […] Hepes with antibiotics). 95 μl worm suspension was added to each well of a 96 well plate.
Test compounds were dissolved in dimethylsulfoxide to give a working stock solution of 20 mg/ml. The stock concentration was diluted 1:10 in Basal media to give 2.0 mg/ml (10% DMSO). 5 μl of the stock compound solution was added to the worm suspension to give a final concentration of 100 μg/ml. Plates were sealed with pressure sensitive film and incubated at 37° C. Observations were made 2 hrs, 24 hrs, 48 hrs, 72 hrs and 4 days post-treatment using an inverted microscope. Activity was recorded if a significant proportion of the worms were dead or adversely affected by the compound when compared to the control well containing 1% DMSO. Compounds were initially tested at 100 μg/ml, wherefrom relevant dose responses (100, 30, 10, 3, 1, 0.3, 0.1 μg/ml) were conducted in duplicate experiments to generate n=2. Data was recorded as minimum effective dose.

Compound | in vitro H.c. (L3) MED
CC(C#N)(COc1cc(C#N)ccc1Cl)NC(=O)c1ccc(S(F)(F)(F)(F)F)cc1 (racemic) [Example 2, N-[2-(2-Chloro-5-cyanophenoxy)-1-cyano-1-methylethyl]-4-(pentafluorothio)benzamide] | 1 µg/mL
CC(C#N)(COc1c(F)cc(C#N)cc1C(F)(F)F)NC(=O)c1ccc(S(F)(F)(F)(F)F)cc1 (racemic) [Example 4, N-{1-Cyano-2-[4-cyano-2-fluoro-6-(trifluoromethyl)phenoxy]-1-methylethyl}-4-(pentafluorothio)benzamide] | 3 µg/mL
CC(C#N)(COc1ccc(C#N)cc1C(F)(F)F)NC(=O)c1ccc(S(F)(F)(F)(F)F)cc1 (single isomer, unassigned) [Example 3b, N-{1-Cyano-2-[4-cyano-2-(trifluoromethyl)Phenoxy]-1-methylethyl}-4-(pentafluorothio)benzamide] | 1 µg/mL

Same assay, conditions: minimum effective dose; table of Examples 5-11

Compound | H.c. (L3) MED
CC(C#N)(COc1cc(C#N)cc(C(F)(F)F)c1)NC(=O)c1ccc(S(F)(F)(F)(F)F)cc1 (stereo not shown) [Example 7, N-{1-cyano-2-[3-cyano-5-(trifluoromethyl)phenoxy]-1-methylethyl}-4-(pentafluorothio)benzamide] | 30 µg/mL
CC(C#N)(COc1ccc(C#N)c(Cl)c1)NC(=O)c1ccc(S(F)(F)(F)(F)F)cc1 (stereo not shown) [Example 6, N-[2-(3-Chloro-4-cyanophenoxy)-1-cyano-1-methylethyl]-4-(pentafluorothio)benzamide] | 3 µg/mL
CC(C#N)(COc1ccc(Br)cc1C(F)(F)F)NC(=O)c1ccc(S(F)(F)(F)(F)F)cc1 (stereo not shown) [Example 10, N-{2-[4-Bromo-2-(trifluoromethyl)phenoxy]-1-cyano-1-methylethyl}-4-(pentafluorothio)benzamide] | 10 µg/mL
CC(C#N)(COc1c(F)cc(F)cc1C#N)NC(=O)c1ccc(S(F)(F)(F)(F)F)cc1 (stereo not shown) [Example 8, N-[1-Cyano-2-(2-cyano-4,6-difluorophenoxy)-1-methylethyl]-4-(pentafluorothio)benzamide] | 30 µg/mL

Same assay, conditions: minimum effective dose; table of Examples 13a-42; 13a/b, 27a/b, 29a/b, 33a/b tested as mixtures of regioisomers

Compound | H.c. (L3) MED
CC(C#N)(COc1cccc(Cl)c1Cl)NC(=O)c1ccc(S(F)(F)(F)(F)F)cc1 (stereo not shown) [Example 42, N-[1-Cyano-2-(2,3-dichlorophenoxy)-1-methylethyl]-4-(pentafluorothio)benzamide] | 30 µg/mL
CC(C#N)(COc1ccc(F)c(Br)c1)NC(=O)c1ccc(S(F)(F)(F)(F)F)cc1 (stereo not shown) [Example 33b, N-[2-(3-Bromo-4-fluorophenoxy)-1-cyano-1-methylethyl]-4-(pentafluorothio)benzamide] | 10 µg/mL
CC(C#N)(COc1cc(Cl)cc(C#N)c1)NC(=O)c1ccc(S(F)(F)(F)(F)F)cc1 (stereo not shown) [Example 14, N-[2-(3-Chloro-5-cyanophenoxy)-1-cyano-1-methylethyl]-4-(pentafluorothio)benzamide] | 3 µg/mL
CC(C#N)(COc1ccccc1Cl)NC(=O)c1ccc(S(F)(F)(F)(F)F)cc1 (stereo not shown) [Example 25, N-[2-(2-Chlorophenoxy)-1-cyano-1-methylethyl]-4-(pentafluorothio)benzamide] | 10 µg/mL
CC(C#N)(COc1cccc(C#N)c1C(F)(F)F)NC(=O)c1ccc(S(F)(F)(F)(F)F)cc1 (stereo not shown) [Example 36, N-{1-Cyano-2-[3-cyano-2-(trifluoromethyl)phenoxy]-1-methylethyl}-4-(pentafluorothio)benzamide] | 10 µg/mL
CC(C#N)(COc1cc(Br)cc(C#N)c1)NC(=O)c1ccc(S(F)(F)(F)(F)F)cc1 (stereo not shown) [Example 35, N-[2-(3-Bromo-5-cyanophenoxy)-1-cyano-1-methylethyl]-4-(pentafluorothio)benzamide] | 3 µg/mL
CC(C#N)(COc1cccc(F)c1C#N)NC(=O)c1ccc(S(F)(F)(F)(F)F)cc1 (stereo not shown) [Example 18, N-[1-Cyano-2-(2-cyano-3-fluorophenoxy)-1-methylethyl]-4-(pentafluorothio)benzamide] | 10 µg/mL
N-[2-(4-Chlorophenoxy)-1-cyano-1-methylethyl]-(pentafluorothio)benzamide [Example 15] | 30 µg/mL
CC(C#N)(COc1cc(Cl)ccc1Cl)NC(=O)c1ccc(S(F)(F)(F)(F)F)cc1 (stereo not shown) [Example 38, N-[1-Cyano-2-(2,5-dichlorophenoxy)-1-methylethyl]-4-(pentafluorothio)benzamide] | 10 µg/mL
CC(C#N)(COc1ccccc1C(F)(F)F)NC(=O)c1ccc(S(F)(F)(F)(F)F)cc1 (stereo not shown) [Example 21, N-{1-Cyano-1-methyl-2-[2-(trifluoromethyl)phenoxy]ethyl}-4-(pentafluorothio)benzamide] | 30 µg/mL

Same assay, conditions: minimum effective dose; table of Examples 45-49

Compound | H.c. (L3) MED
CC(C#N)(COc1cc(C#N)ccc1C(N)=O)NC(=O)c1ccc(S(F)(F)(F)(F)F)cc1 (stereo not shown) [Example 45, 4-Cyano-2-(2-cyano-2-{[4-(pentafluorothio)benzoyl]amino}propoxy)benzamide] | 30 µg/mL
CC(C#N)(COc1cc(F)cc(C#N)c1)NC(=O)c1ccc(S(F)(F)(F)(F)F)cc1 (stereo not shown) [Example 48, N-[1-Cyano-2-(3-cyano-5-fluorophenoxy)-1-methylethyl]-4-(pentafluorothio)benzamide] | 3 µg/mL

Same assay, conditions: minimum effective dose; table of Examples 51-52

Compound | H.c. (L3) MED
CC(C#N)(COc1cccc(Cl)c1C(F)(F)F)NC(=O)c1ccc(S(F)(F)(F)(F)F)cc1 (stereo not shown) [Example 52, N-{2-[3-Chloro-2-(trifluoromethyl)phenoxy]-1-cyano-1-methylethyl}-4-(pentafluorothio)benzamide] | 10 µg/mL
CC(C#N)(COc1c(F)cc(C#N)cc1F)NC(=O)c1ccc(S(F)(F)(F)(F)F)cc1 (stereo not shown) [Example 51, N-[1-Cyano-2-(4-cyano-2,6-difluorophenoxy)-1-methylethyl]-4-(pentafluorothio)benzamide] | 3 µg/mL

Same assay, conditions: minimum effective dose; unit not given

Compound | in vitro H.c. (L3) MED
CC(C#N)(COc1ccc(Cl)cc1Cl)NC(=O)c1ccc(S(F)(F)(F)(F)F)cc1 (stereo not shown) [Example 12, N-[1-Cyano-2-(2,4-dichlorophenoxy)-1-methylethyl]-4-(pentafluorothio)benzamide] | 3
CC(C#N)(COc1cc(C#N)cc(C(F)(F)F)c1Cl)NC(=O)c1ccc(S(F)(F)(F)(F)F)cc1 (racemic) [Example 44, N-{2-[2-Chloro-5-cyano-3-(trifluoromethyl)phenoxy]-1-cyano-1-methylethyl}-4-(pentafluorothio)benzamide] | 10
CC(C#N)(COc1ccc(C(N)=O)cc1C(F)(F)F)NC(=O)c1ccc(S(F)(F)(F)(F)F)cc1 (racemic) [Example 43, 4-(2-Cyano-2-{[4-(pentafluorothio)benzoyl]amino}propoxy)-3-(trifluoromethyl)benzamide] | 1
CC(C#N)(COc1cc(C#N)cc(C(N)=O)c1)NC(=O)c1ccc(S(F)(F)(F)(F)F)cc1 (racemic) [Example 53, 3-Cyano-5-(2-cyano-2-{[4-(pentafluorothio)benzoyl]amino}propoxy)benzamide] | 30
